From patent US20080318905A1, “Prodrugs and methods of making and using the same” (priority 2006, published 2008)

Assays:
[1] = biological target: alkaline phosphatase (EC 3.1.3.1) (Bos taurus, UniProt P19111); assay: Enzymatic hydrolysis by alkaline phosphatase at pH 8, 37° C., HPLC
Method: Alkaline Phosphatase (400 units) was added to 10 mL of Alkaline Phosphatase Stabilizing Buffer (APSB; Sigma-Aldrich Catalog #A4955) maintained at 37° C. Solution pH was verified by dropping 25 μL of solution onto calibrated Color-pHast Indicator Strips (pH 2-9, Darmstadt, Germany) and checking the color against the calibration scale. […] At each sampling time point, a 200-μL aliquot was drawn into labeled micro centrifuge tubes, each containing 50 μL of Alkaline Phosphatase Stop Solution (APSS; Sigma-Aldrich Catalog #A5852). Acetonitrile (400 μL) was added to each micro centrifuge tube, vortexed briefly, and centrifuged at 12,000 rpm for 5 min. An aliquot (200 μL) of resulting supernatant was removed from each tube, being careful not to disturb the enzyme pellet at the bottom and transferred to HPLC vials containing low volume inserts.

[2] = Solubility in PBS at pH 8; details: for Solubility in PBS at pH 8: PBS pH 8, 37° C., levorphanol free base by sonication; for solubility: PBS, 37 °C, pH 8, aqueous buffer, thermodynamic from solid
Method: (§1) PBS solutions at various pHs (1.2, 6 and 8) were prepared by adjusting 60-mL volumes of PBS maintained at 37° C. with a dropwise addition of concentrated phosphoric acid and/or 0.01 N NaOH, and monitoring with a pH meter calibrated between pH 4 and 7. […] A 50 μL sample was taken for the t=0 time point. The remaining solution was then divided into five aliquots (175 μL each) in microcentrifuge vials labeled according to sampling time-points. Air-tight sealed vials were then incubated at 37° C. in a temperature-controlled water bath. At each time-point, the appropriate vial was removed from the water bath, and a 50 μL sample drawn for HPLC analysis.

[3] = Chemical hydrolysis / aqueous stability in PBS at pH 1.2, 6 and 8, 37° C., HPLC; details: 1 mg/mL
Method: as §1

human mu receptor = human mu receptor (Homo sapiens, UniProt P35372); assay: Human mu receptor binding (IC50, Ki)
human mu receptor, sequence (P35372 whole entry): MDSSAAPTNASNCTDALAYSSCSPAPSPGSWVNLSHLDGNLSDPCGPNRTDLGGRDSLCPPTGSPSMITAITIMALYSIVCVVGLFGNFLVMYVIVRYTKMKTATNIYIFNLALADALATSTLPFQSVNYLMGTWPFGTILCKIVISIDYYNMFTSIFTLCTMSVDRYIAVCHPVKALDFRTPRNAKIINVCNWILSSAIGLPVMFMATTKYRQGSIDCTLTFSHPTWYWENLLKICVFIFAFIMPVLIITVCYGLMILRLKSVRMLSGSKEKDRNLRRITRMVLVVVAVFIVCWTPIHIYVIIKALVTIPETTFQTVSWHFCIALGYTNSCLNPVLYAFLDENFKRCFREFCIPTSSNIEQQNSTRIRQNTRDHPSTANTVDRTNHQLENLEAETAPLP

alkaline phosphatase (EC 3.1.3.1), sequence (P19111 20-506 limits assumed): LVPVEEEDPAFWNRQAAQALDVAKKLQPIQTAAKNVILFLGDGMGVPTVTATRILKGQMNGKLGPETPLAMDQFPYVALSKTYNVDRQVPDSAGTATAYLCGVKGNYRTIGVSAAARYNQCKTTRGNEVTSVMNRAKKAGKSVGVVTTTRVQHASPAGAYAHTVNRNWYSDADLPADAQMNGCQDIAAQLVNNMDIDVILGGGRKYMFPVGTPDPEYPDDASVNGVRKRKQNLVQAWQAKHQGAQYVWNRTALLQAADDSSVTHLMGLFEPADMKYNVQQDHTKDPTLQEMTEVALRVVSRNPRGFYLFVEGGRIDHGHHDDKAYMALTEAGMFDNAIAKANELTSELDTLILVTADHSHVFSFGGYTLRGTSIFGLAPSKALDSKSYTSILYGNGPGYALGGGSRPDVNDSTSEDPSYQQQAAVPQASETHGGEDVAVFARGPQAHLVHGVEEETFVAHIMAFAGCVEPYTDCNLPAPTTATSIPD

Compound: C[N+]1(COP(=O)(O)O)CCC23CCCCC2C1Cc1ccc(O)cc13 (stereo not drawn) [N-phosphonooxymethyl levorphanol, N-Phosphonooxymethyl Levorphanol]
- N-phosphonooxymethyl levorphanol remaining ([1]; alkaline phosphatase, after 30 minutes): no measurable amounts
- share of total peak area that is N-phosphonooxymethyl levorphanol ([1]; alkaline phosphatase, time zero): 1.4%
- time to hydrolyze to levorphanol in the presence of alkaline phosphatase ([1]; pH 8, 40 units AP per mg): ≤ 30 min
- Solubility in PBS at pH 8 [2]: approximately 137 mg/mL
- solubility [2]: ~137 mg/mL
- Percentage of N-phosphonooxymethyl levorphanol remaining ([3]; pH 1.2 PBS, 0 hours): 100.0
- Percentage of N-phosphonooxymethyl levorphanol remaining ([3]; pH 1.2 PBS, 0.5 hours): 111.5
- Percentage of N-phosphonooxymethyl levorphanol remaining ([3]; pH 1.2 PBS, 1 hour): 104.4
- Percentage of N-phosphonooxymethyl levorphanol remaining ([3]; pH 1.2 PBS, 3 hours): 110.9
- Percentage of N-phosphonooxymethyl levorphanol remaining ([3]; pH 1.2 PBS, 5 hours): 111.1
- Percentage of N-phosphonooxymethyl levorphanol remaining ([3]; pH 1.2 PBS, 23 hours): 110.9
- Percentage of N-phosphonooxymethyl levorphanol remaining ([3]; pH 6 PBS, 0 hours): 100.0
- Percentage of N-phosphonooxymethyl levorphanol remaining ([3]; pH 6 PBS, 0.5 hours): 101.4
- Percentage of N-phosphonooxymethyl levorphanol remaining ([3]; pH 6 PBS, 1 hour): 102.3
- Percentage of N-phosphonooxymethyl levorphanol remaining ([3]; pH 6 PBS, 3 hours): 104.3
- Percentage of N-phosphonooxymethyl levorphanol remaining ([3]; pH 6 PBS, 5 hours): 104.3
- Percentage of N-phosphonooxymethyl levorphanol remaining ([3]; pH 6 PBS, 22 hours): 108.0
- Percentage of N-phosphonooxymethyl levorphanol remaining ([3]; pH 8 PBS, 0 hours): 100.0
- Percentage of N-phosphonooxymethyl levorphanol remaining ([3]; pH 8 PBS, 0.5 hours): 100.6
- Percentage of N-phosphonooxymethyl levorphanol remaining ([3]; pH 8 PBS, 1 hour): 100.3
- Percentage of N-phosphonooxymethyl levorphanol remaining ([3]; pH 8 PBS, 3.5 hours): 99.8
- Percentage of N-phosphonooxymethyl levorphanol remaining ([3]; pH 8 PBS, 6 hours): 100.5
- Percentage of N-phosphonooxymethyl levorphanol remaining ([3]; pH 8 PBS, 24 hours): 103.7
- IC50 (human mu receptor): 14 nM
- Ki (human mu receptor; human mu receptor, same assay as IC50, read-out: inhibition constant, Ki): 5.7 nM

Compound: CN1CC[C@]23CCCC[C@H]2[C@H]1Cc1ccc(O)cc13 [levorphanol, Levorphanol, reference compound]
- Solubility in PBS at pH 8 [2]: less than 1 mg/mL
- solubility [2]: < 1 mg/mL
